{
  "source": "patent US10774109B2",
  "about": "“Crystal of reduced glutathione and method for producing same” (KYOWA HAKKO BIO CO., LTD., priority 2016, dated 2020)",
  "key": {"[1]": {"experiment": "Crystal thickness by scanning electron microscope", "assay_type": "physicochemical", "conditions": "α-type crystal", "from_the_text": "In this description, when a crystal is ascertained three-dimensionally using a microscope, the longest axis is referred to as “longitudinal axis”, and an axis perpendicular to the longitudinal axis is referred to as “lateral axis” (FIG. 2). Further, the length in the longitudinal axis direction of a crystal, the major axis of the cross section of the lateral axis, and the minor axis of the cross section of the lateral axis are referred to as “crystal length”, “crystal width”, and “crystal thickness”, respectively (see FIG. 2), and the averages thereof are referred to as “average length”, “average width”, and “average thickness”, respectively.\nThe crystal thickness can be measured, for example, using a scanning electron microscope [JSM-6510 (manufactured by JEOL Ltd.)] at a measurement magnification of 250 to 1000 times. For example, as for 50 crystals, crystals whose longitudinal axis is perpendicular to the scanning electron microscope field of view are selected, and the thickness of each crystal is measured (FIG. 2, right drawing), and the average thickness T is measured. A sample is fixed to an aluminum sample stand with a carbon double-sided tape."}, "[2]": {"experiment": "Loose specific volume (Multi Tester MT-1001T)", "assay_type": "physicochemical", "conditions": "for Difference in specific volume: loose minus dense specific volume; for Loose specific volume: α-type crystal", "procedure": "Here, the “loose specific volume” refers to a value which is obtained by dividing a volume occupied by a powder by a mass when the powder is filled in a container and the mass of the powder is measured.\n[Measurement Conditions for Loose Specific Volume]\nVibration width: 0.6 to 0.7 mm"}, "[3]": {"experiment": "Dense specific volume (Multi Tester MT-1001T)", "assay_type": "physicochemical", "conditions": "α-type crystal; 200 taps", "procedure": "Here, the “dense specific volume” refers to a value which is obtained by dividing a volume occupied by a powder by a mass when the powder is filled in a container and the mass of the powder is measured, and thereafter a given impact is applied to the container.\n[Measurement Conditions for Dense Specific Volume]"}, "[4]": {"experiment": "Angle of repose (Multi Tester MT-1001T)"}, "[5]": {"experiment": "Angle of rupture (Multi Tester MT-1001T)"}, "[6]": {"conditions": "compared with Comparative Example", "from_the_text": "FIG. 1 illustrates the change in loose specific volume over time when crystals of reduced glutathione obtained in Example 3 and Comparative Example were pulverized. The vertical axis represents the loose specific volume (mL/g), and the horizontal axis represents the pulverization time (min).\nThe crystal of reduced glutathione of the present invention can be produced by further pulverizing the crystal of reduced glutathione of the present invention obtained by the above-mentioned method. The pulverization of the crystal can be performed, for example, using Osterizer Oster Vintage Blender 16-speed Dual Range (Osterizer OSTER) under the following conditions.\n[Conditions for Pulverization of Crystal]\nSample feeding amount: 20 g/feed\nThe α-type crystals of reduced glutathione obtained in Example 3 and Comparative Example were pulverized, and the change in loose specific volume over time was measured."}},
  "data": [
    {"compound": "N[C@@H](CCC(=O)N[C@@H](CS)C(=O)NCC(=O)O)C(=O)O", "note": "[Commercially available product A, reduced glutathione]", "values": [
      {"measurement": "Average crystal thickness T", "setting": "[1]", "result": 1.9, "unit": "μm"},
      {"measurement": "Difference in specific volume", "setting": "[2]", "result": 2.20, "unit": "mL/g"},
      {"measurement": "Loose specific volume", "setting": "[2]", "result": 4.69, "unit": "mL/g"},
      {"measurement": "Dense specific volume", "setting": "[3]", "result": 2.49, "unit": "mL/g"}
    ]},
    {"compound": "N[C@@H](CCC(=O)N[C@@H](CS)C(=O)NCC(=O)O)C(=O)O", "note": "[Commercially available product B, reduced glutathione]", "values": [
      {"measurement": "Difference in specific volume", "setting": "[2]", "result": 2.61, "unit": "mL/g"},
      {"measurement": "Loose specific volume", "setting": "[2]", "result": 5.50, "unit": "mL/g"},
      {"measurement": "Dense specific volume", "setting": "[3]", "result": 2.88, "unit": "mL/g"}
    ]},
    {"compound": "N[C@@H](CCC(=O)N[C@@H](CS)C(=O)NCC(=O)O)C(=O)O", "note": "[Comparative Example, reduced glutathione]", "values": [
      {"measurement": "Average crystal thickness T", "setting": "[1]", "result": 5.5, "unit": "μm"},
      {"measurement": "Difference in specific volume", "setting": "[2]", "result": 1.48, "unit": "mL/g"},
      {"measurement": "Loose specific volume", "setting": "[2]", "result": 3.42, "unit": "mL/g"},
      {"measurement": "Dense specific volume", "setting": "[3]", "result": 1.95, "unit": "mL/g"},
      {"measurement": "Angle of repose", "setting": "[4]; After pulverization", "result": 51.8, "unit": "°"},
      {"measurement": "Angle of repose", "setting": "[4]; Before pulverization", "result": 51.4, "unit": "°"},
      {"measurement": "Angle of rupture", "setting": "[5]; After pulverization", "result": 41.5, "unit": "°"},
      {"measurement": "Angle of rupture", "setting": "[5]; Before pulverization", "result": 46.8, "unit": "°"}
    ]},
    {"compound": "N[C@@H](CCC(=O)N[C@@H](CS)C(=O)NCC(=O)O)C(=O)O", "note": "[Example 1, reduced glutathione]", "values": [
      {"measurement": "Average crystal thickness T", "setting": "[1]", "result": 17.0, "unit": "μm"},
      {"measurement": "Difference in specific volume", "setting": "[2]", "result": 0.62, "unit": "mL/g"},
      {"measurement": "Loose specific volume", "setting": "[2]", "result": 1.88, "unit": "mL/g"},
      {"measurement": "Dense specific volume", "setting": "[3]", "result": 1.26, "unit": "mL/g"}
    ]},
    {"compound": "N[C@@H](CCC(=O)N[C@@H](CS)C(=O)NCC(=O)O)C(=O)O", "note": "[Example 2, reduced glutathione]", "values": [
      {"measurement": "Average crystal thickness T", "setting": "[1]", "result": 16.7, "unit": "μm"},
      {"measurement": "Difference in specific volume", "setting": "[2]", "result": 0.71, "unit": "mL/g"},
      {"measurement": "Loose specific volume", "setting": "[2]", "result": 2.00, "unit": "mL/g"},
      {"measurement": "Dense specific volume", "setting": "[3]", "result": 1.29, "unit": "mL/g"}
    ]},
    {"compound": "N[C@@H](CCC(=O)N[C@@H](CS)C(=O)NCC(=O)O)C(=O)O", "note": "[Example 3, reduced glutathione]", "values": [
      {"measurement": "Average crystal thickness T", "setting": "[1]", "result": 16.7, "unit": "μm"},
      {"measurement": "Difference in specific volume", "setting": "[2]", "result": 0.71, "unit": "mL/g"},
      {"measurement": "Loose specific volume", "setting": "[2]", "result": 2.00, "unit": "mL/g"},
      {"measurement": "Dense specific volume", "setting": "[3]", "result": 1.29, "unit": "mL/g"},
      {"measurement": "loose specific volume during pulverization", "setting": "[6]; all pulverization times", "result": "smaller"},
      {"measurement": "pulverization behaviour (speed of pulverization, convergence of specific volume)", "setting": "[6]; FIG. 1", "result": "pulverized more promptly"},
      {"measurement": "Angle of repose", "setting": "[4]; After pulverization", "result": 37.4, "unit": "°"},
      {"measurement": "Angle of repose", "setting": "[4]; Before pulverization", "result": 42.4, "unit": "°"},
      {"measurement": "flowability", "setting": "[4]; from Table 3, before and after pulverization", "result": "the flowability is high"},
      {"measurement": "Angle of rupture", "setting": "[5]; After pulverization", "result": 31.1, "unit": "°"},
      {"measurement": "Angle of rupture", "setting": "[5]; Before pulverization", "result": 39.4, "unit": "°"}
    ]}
  ]
}
